Source: PubChem BioAssay AID1259407 (Chemical Carcinogenesis Research Information System (CCRIS), 2018)
Calls of active or inactive are those of the source. The rule behind the calls is not given here.

Test system: CCRIS mutagenicity, Ames/micronucleus/aberration tests
Assay: CCRIS mutagenicity studies
[1] = Test System: AMES SALMONELLA TYPHIMURIUM, Strain/Indicator: TA98, Metabolic Activation: NONE, Method: STANDARD PLATE
[2] = Test System: AMES SALMONELLA TYPHIMURIUM, Strain/Indicator: TA100, Metabolic Activation: NONE, Method: STANDARD PLATE
[3] = Test System: AMES SALMONELLA TYPHIMURIUM, Strain/Indicator: TA98, Metabolic Activation: NONE, Method: PREINCUBATION
[4] = Test System: AMES SALMONELLA TYPHIMURIUM, Strain/Indicator: TA98, Metabolic Activation: RAT, LIVER, S-9, AROCLOR 1254, Method: PREINCUBATION
[5] = Test System: AMES SALMONELLA TYPHIMURIUM, Strain/Indicator: TA100, Metabolic Activation: NONE, Method: PREINCUBATION
[6] = Test System: AMES SALMONELLA TYPHIMURIUM, Strain/Indicator: TA100, Metabolic Activation: RAT, LIVER, S-9, AROCLOR 1254, Method: PREINCUBATION
[7] = Test System: AMES SALMONELLA TYPHIMURIUM, Strain/Indicator: TA98, Metabolic Activation: RAT, LIVER, S-9, AROCLOR 1254, Method: STANDARD PLATE
[8] = Test System: AMES SALMONELLA TYPHIMURIUM, Strain/Indicator: TA100, Metabolic Activation: RAT, LIVER, S-9, AROCLOR 1254, Method: STANDARD PLATE

## C=Cc1ccc(S(=O)(=O)O)cc1
Test System: Ames Salmonella typhimurium, Strain/Indicator: TA98, Metabolic Activation: None, Method: Preincubation
  mutagenic call: inactive; negative
Test System: Ames Salmonella typhimurium, Strain/Indicator: TA98, Metabolic Activation: Rat, Liver, S-9, Phenobarbital and 5,6-benzoflavone, Method: Preincubation
  mutagenic call: inactive; negative
Test System: Ames Salmonella typhimurium, Strain/Indicator: TA100, Metabolic Activation: None, Method: Preincubation
  mutagenic call: inactive; negative
Test System: Ames Salmonella typhimurium, Strain/Indicator: TA100, Metabolic Activation: Rat, Liver, S-9, Phenobarbital and 5,6-benzoflavone, Method: Preincubation
  mutagenic call: inactive; negative
Test System: Ames Salmonella typhimurium, Strain/Indicator: TA1535, Metabolic Activation: None, Method: Preincubation
  mutagenic call: inactive; negative
Test System: Ames Salmonella typhimurium, Strain/Indicator: TA1535, Metabolic Activation: Rat, Liver, S-9, Phenobarbital and 5,6-benzoflavone, Method: Preincubation
  mutagenic call: inactive; negative
Test System: Ames Salmonella typhimurium, Strain/Indicator: TA1537, Metabolic Activation: None, Method: Preincubation
  mutagenic call: inactive; negative
Test System: Ames Salmonella typhimurium, Strain/Indicator: TA1537, Metabolic Activation: Rat, Liver, S-9, Phenobarbital and 5,6-benzoflavone, Method: Preincubation
  mutagenic call: inactive; negative
Test System: E. coli, Strain/Indicator: WP2uvrA/pKM101, Metabolic Activation: None, Method: Preincubation
  mutagenic call: inactive; negative
Test System: E. coli, Strain/Indicator: WP2uvrA/pKM101, Metabolic Activation: Rat, Liver, S-9, Phenobarbital and 5,6-benzoflavone, Method: Preincubation
  mutagenic call: inactive; negative

## O=[N+]([O-])c1cc2[nH]c3cc([N+](=O)[O-])c4ccccc4c3c2c2ccccc12
[1]
  mutagenic call: active; positive
Test System: AMES SALMONELLA TYPHIMURIUM, Strain/Indicator: TA98, Metabolic Activation: RAT, LIVER, S-9, 3-METHYLCHOLANTHRENE, Method: STANDARD PLATE
  mutagenic call: active; positive
[2]
  mutagenic call: active; positive
Test System: AMES SALMONELLA TYPHIMURIUM, Strain/Indicator: TA100, Metabolic Activation: RAT, LIVER, S-9, 3-METHYLCHOLANTHRENE, Method: STANDARD PLATE
  mutagenic call: active; positive

## CCCC(=O)O[C@H]1[C@H](C)O[C@@H](O[C@H]2[C@H](N(C)C)[C@@H](O)[C@H](O[C@H]3[C@@H](CC=O)C[C@@H](C)[C@@H](O)/C=C/C=C/C[C@@H](C)OC(=O)C[C@@H](O)[C@@H]3OC)O[C@@H]2C)C[C@@]1(C)OC(=O)CC
[3]
  mutagenic call: inactive; negative
[4]
  mutagenic call: inactive; negative
[5]
  mutagenic call: inactive; negative
[6]
  mutagenic call: inactive; negative
Test System: AMES SALMONELLA TYPHIMURIUM, Strain/Indicator: TA1535, Metabolic Activation: NONE, Method: PREINCUBATION
  mutagenic call: inactive; negative
Test System: AMES SALMONELLA TYPHIMURIUM, Strain/Indicator: TA1535, Metabolic Activation: RAT, LIVER, S-9, AROCLOR 1254, Method: PREINCUBATION
  mutagenic call: inactive; negative
Test System: AMES SALMONELLA TYPHIMURIUM, Strain/Indicator: TA1537, Metabolic Activation: NONE, Method: PREINCUBATION
  mutagenic call: inactive; negative
Test System: AMES SALMONELLA TYPHIMURIUM, Strain/Indicator: TA1537, Metabolic Activation: RAT, LIVER, S-9, AROCLOR 1254, Method: PREINCUBATION
  mutagenic call: inactive; negative
Test System: AMES SALMONELLA TYPHIMURIUM, Strain/Indicator: TA1538, Metabolic Activation: NONE, Method: PREINCUBATION
  mutagenic call: inactive; negative
Test System: AMES SALMONELLA TYPHIMURIUM, Strain/Indicator: TA1538, Metabolic Activation: RAT, LIVER, S-9, AROCLOR 1254, Method: PREINCUBATION
  mutagenic call: inactive; negative
Test System: E. COLI, Strain/Indicator: WP2 UVRA, Metabolic Activation: NONE, Method: PREINCUBATION
  mutagenic call: inactive; negative
Test System: E. COLI, Strain/Indicator: WP2 UVRA, Metabolic Activation: RAT, LIVER, S-9, AROCLOR 1254, Method: PREINCUBATION
  mutagenic call: inactive; negative

## COC(=O)C12OC1(C)C(C)(O)OC2=O (stereo not given)
Test System: AMES SALMONELLA TYPHIMURIUM, Strain/Indicator: TA98, Metabolic Activation: NONE, Method: DISK ASSAY
  mutagenic call: inactive; negative
[1]
  mutagenic call: inactive; negative
Test System: AMES SALMONELLA TYPHIMURIUM, Strain/Indicator: TA98, Metabolic Activation: RAT, LIVER, S-9, AROCLOR 1254, Method: DISK ASSAY
  mutagenic call: inactive; negative
[7]
  mutagenic call: active; positive
[2]
  mutagenic call: inactive; negative
[8]
  mutagenic call: inactive; negative

## [Cl][Pt-2]([Cl])([Cl])[Cl]
[3]
  mutagenic call: active; positive
[4]
  mutagenic call: active; positive
[5]
  mutagenic call: active; positive
[6]
  mutagenic call: active; positive

## CC(=O)Oc1ccc(CO)cc1
[2]
  mutagenic call: inactive; negative

## ClC(Cl)=Cc1c(Cl)c(Cl)c(Cl)c(Cl)c1Cl
[1]
  mutagenic call: inactive; negative
[7]
  mutagenic call: inactive; negative
[2]
  mutagenic call: inactive; negative
[8]
  mutagenic call: inactive; negative

## [Cl][Ce]([Cl])[Cl]
Test System: E. COLI, Strain/Indicator: WP2 UVRA, Metabolic Activation: NONE, Method: SPOT TEST
  mutagenic call: inactive; negative

## CCCON=O
Test System: AMES SALMONELLA TYPHIMURIUM, Strain/Indicator: TA98, Metabolic Activation: HAMSTER, LIVER, S-9, AROCLOR 1254, Method: STANDARD PLATE
  mutagenic call: inactive; negative
[1]
  mutagenic call: inactive; negative
[7]
  mutagenic call: inactive; negative
Test System: AMES SALMONELLA TYPHIMURIUM, Strain/Indicator: TA100, Metabolic Activation: HAMSTER, LIVER, S-9, AROCLOR 1254, Method: STANDARD PLATE
  mutagenic call: active; positive
[2]
  mutagenic call: inactive; negative
[8]
  mutagenic call: active; positive
Test System: AMES SALMONELLA TYPHIMURIUM, Strain/Indicator: TA1535, Metabolic Activation: HAMSTER, LIVER, S-9, AROCLOR 1254, Method: STANDARD PLATE
  mutagenic call: active; positive
Test System: AMES SALMONELLA TYPHIMURIUM, Strain/Indicator: TA1535, Metabolic Activation: NONE, Method: STANDARD PLATE
  mutagenic call: active; positive
Test System: AMES SALMONELLA TYPHIMURIUM, Strain/Indicator: TA1535, Metabolic Activation: RAT, LIVER, S-9, AROCLOR 1254, Method: STANDARD PLATE
  mutagenic call: active; positive
Test System: AMES SALMONELLA TYPHIMURIUM, Strain/Indicator: TA1537, Metabolic Activation: HAMSTER, LIVER, S-9, AROCLOR 1254, Method: STANDARD PLATE
  mutagenic call: inactive; negative
Test System: AMES SALMONELLA TYPHIMURIUM, Strain/Indicator: TA1537, Metabolic Activation: NONE, Method: STANDARD PLATE
  mutagenic call: inactive; negative
Test System: AMES SALMONELLA TYPHIMURIUM, Strain/Indicator: TA1537, Metabolic Activation: RAT, LIVER, S-9, AROCLOR 1254, Method: STANDARD PLATE
  mutagenic call: inactive; negative
Test System: MOUSE LYMPHOMA, Strain/Indicator: L5178Y (TK+/TK-), Metabolic Activation: NONE, Method: SUSPENSION/PLATE
  mutagenic call: active; positive. reevaluation of results: inconclusive
Test System: MOUSE LYMPHOMA, Strain/Indicator: L5178Y (TK+/TK-), Metabolic Activation: RAT, LIVER, S-9, AROCLOR 1254, Method: SUSPENSION/PLATE
  mutagenic call: active; positive. reevaluation of results: positive
Test System: Mouse lymphoma, Strain/Indicator: L5178Y (tk+/tk-), Metabolic Activation: None, Method: Suspension/plate
  mutagenic call: active; positive
Test System: Mouse lymphoma, Strain/Indicator: L5178Y (tk+/tk-), Metabolic Activation: Rat, Liver, S-9, Aroclor 1254, Method: Suspension/plate
  mutagenic call: active; positive

## BrCc1c2ccccc2c2ccc3cccc4ccc1c2c43
[1]
  mutagenic call: active; positive
[2]
  mutagenic call: active; positive
